The record followed here is patent publication US20100160391A1, “Substituted Aminopyridines as Fluorescent Reporters for Amide Hydrolases” (priority 2006, published 2010).

Data set [1] in a line: Dependence of relative fluorescent intensity on pH values. Type of data set: physicochemical. The note with it: 25 μM, pH 8, excitation 302 nm. As for the experimental part: The dependence of relative fluorescent intensity on pH values. 5-amino-2-methoxypyridine (6) was used to determine whether protonization/de-protonization affects the relative fluorescent intensities of the reporters. A stock solution of (6) in ethanol (5 μl, 5 mM) was added to 995 μl 0.1 M sodium phosphate buffer (from pH 6.0 to pH 8.0) or 0.1 M Tris/HCl buffer (pH 9.0) in a quartz cuvette (final substrate concentration 25 μM). Relative fluorescent unit/intensity (RFU) for emission spectra was recorded by a 2 nm interval at room temperature using a fixed excitation wavelength (λ=302 nm). The RFU of each pH value was an average of triplicates and the standard deviation for each point was less than 1%. Similarly, the RFU of the excitation spectrum was recorded by a 2 nm interval at room temperature using a fixed emission wavelength (λ=396 nm) in 0.1 M phosphate buffer (pH 8.0).

A short description of data set [2]: Comparison of aqueous solubility of substrates (absorbance at 800 nm). Type of data set: physicochemical. The note with it: 0.1 M phosphate buffer (pH 8.0), 1% ethanol, 37° C. On the procedure:
Comparison of aqueous solubility of substrates. The aqueous solubility of the aminopyridine derivatives (e.g., 13, 14) and the 7-aminocoumarin derivative (e.g., 15) was determined in clear 96-well styrene flat-bottom microtiter plates with a Spectra Max M2 spectrophotometer. Different concentrations of the substrates (13, 14 and 15; final concentration: 0.39, 0.78, 1.56, 3.13, 6.25, 12.5, 25, 50, 100, or 200 μM) in 200 μl 0.1 M sodium phosphate buffer (1% ethanol; pH 8.0) were used and the absorbance was recorded at a wavelength of 800 nm at 37° C. The measurements were performed in three replicates for each concentration.

On to `CCCCCCCC(=O)Nc1ccc(OC)nc1` [Compound 13, N-(6-methoxypyridin-3-yl) octanamide], for which the “relative fluorescent intensity of substrate emission at the maximal excitation wavelength of (6)” value in data set [1] is “less than 200 RFU”. Besides, in data set [2], the “aqueous solubility compared with coumarin substrate (15)” value is on record as “much higher solubility”.
